According to ChEMBL document CHEMBL6120959:
The source made the active and inactive calls. No cut-off for these calls is given here.

What was measured:
[1] = target: Lysine-specific histone demethylase 1A (Homo sapiens) (UniProt O60341); test: Inhibition of LSD1 in patient-derived human Colorectal cancer organoid at >2.5 uM treated for 10 days by IHC analysis; assay type: tissue-based; details: time 10.0 day
[2] = target: T1, Histone deacetylase (Homo sapiens) (UniProt Q13547+O15379+Q9UBN7+Q92769+Q9UQL6+Q8WUI4+Q9BY41+Q96DB2+P56524+Q9UKV0+Q969S8); assay type: cell-based; details: HCT-116, dose 0.063-1 µM, time 48.0 hrs
[3] = target: T1, Histone deacetylase (Homo sapiens); test: Inhibition of HDAC in patient-derived human Colorectal cancer organoid assessed as increase in acetyl-tubulin level at 0.313 to 5 uM treated for 10 days by Western blot analysis; assay type: tissue-based; details: dose 0.313-5 µM, time 10.0 day
[4] = target: Lysine-specific histone demethylase 1A (Homo sapiens) (UniProt O60341); assay type: tissue-based; details: Colorectal cancer organoid, dose 0.313-5 µM, time 10.0 day
[5] = target: T1, Histone deacetylase (Homo sapiens); assay type: cell-based; details: HCT-116, dose 0.063-1 µM, time 48.0 hrs; remark: listed apart in the source
[6] = target: Lysine-specific histone demethylase 1A (Homo sapiens) (UniProt O60341); test: Inhibition of LSD1 (unknown origin) demethylase-mediated FAD-dependent H2O2 production at 1 uM by fluorescence coupling enzyme assay
[7] = target: Lysine-specific histone demethylase 1A (Homo sapiens) (UniProt O60341); assay type: tissue-based; details: Colorectal cancer organoid, dose > 2.5 µM, time 10.0 day
[8] = target: T1, Histone deacetylase (Homo sapiens); test: Inhibition of HDAC in patient-derived human Colorectal cancer organoid assessed as increase in acetyl-histone H3 level at 0.313 to 5 uM treated for 10 days by Western blot analysis; assay type: tissue-based; details: dose 0.313-5 µM, time 10.0 day
[9] = target: Lysine-specific histone demethylase 1A (Homo sapiens) (UniProt O60341); assay type: cell-based; details: HCT-116, dose 0.063-1 µM, time 48.0 hrs

In the case of O=C(/C=C/c1cccc(S(=O)(=O)N[C@@H]2C[C@H]2c2ccccc2)c1)NO, the inhibition [1] is reported as “Active”, the inhibition [2] is reported as “Dose-dependent-effect” and the inhibition [3] is reported as “Active”. The inhibition [4] was “Active”, the inhibition [5] was “Dose-dependent-effect” and the inhibition [6] was “Active; More Effective Than Standard Lsd1 Inhibitor At All Concentrations Tested”. For the same molecule, the inhibition [7] was “Active”, the inhibition [8] was “Active” and the inhibition [9] was “Active”.

With O=C(CCCCCCC(=O)Nc1ccccc1)NO the inhibition [9] was “Active; Compound Might Have Indirect Lsd1 Inhibitory Effect”.
